Measurements as given in patent US20210045385A1, “PYRIDAZINONE-SUBSTITUTED KETOXIMES AS HERBICIDES” (FMC Corporation, priority 2018, published 2021).

Tests used:
Type in all cases: in vivo
[1] = tested on: wheat (Triticum aestivum); assay: Test A postemergence, visual plant response rating
Method in brief: (§1)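 Ratings 0–100 (100 = complete control), visual, vs untreated controls at ~10 days. Application pre- or postemergence; solvent mixture with surfactant; loam/sand medium.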

[2] = tested on: galium (catchweed bedstraw, Galium aparine); assay: Test A postemergence, visual plant response rating; conditions: for Galium plant response rating (0 to 100 scale): 500 g ai/ha, postemergence, 0 is no effect, 100 is complete control; for Galium plant response rating: Postemergence, 125 g ai/ha, 0 to 100 scale (0 no effect, 100 complete control)
Method in brief: as §1

[3] = tested on: foxtail, giant (giant foxtail, Setaria faberii); assay: Test A postemergence, visual plant response rating; conditions: for Foxtail, Giant plant response rating (0 to 100 scale): 500 g ai/ha, postemergence, 0 is no effect, 100 is complete control; for Foxtail, Giant plant response rating: Postemergence, 125 g ai/ha, 0 to 100 scale (0 no effect, 100 complete control)
Method in brief: as §1

[4] = tested on: blackgrass (Alopecurus myosuroides); assay: Test A postemergence, visual plant response rating; conditions: for Blackgrass plant response rating (0 to 100 scale): 500 g ai/ha, postemergence, 0 is no effect, 100 is complete control; for Blackgrass plant response rating: Postemergence, 125 g ai/ha, 0 to 100 scale (0 no effect, 100 complete control)
Method in brief: as §1

[5] = tested on: Italian ryegrass (Lolium multiflorum); assay: Test A postemergence, visual plant response rating
Method in brief: as §1

[6] = tested on: pigweed (Amaranthus retroflexus); assay: Test A postemergence, visual plant response rating; conditions: for Pigweed plant response rating (0 to 100 scale): 500 g ai/ha, postemergence, 0 is no effect, 100 is complete control; for Pigweed plant response rating: Postemergence, 125 g ai/ha, 0 to 100 scale (0 no effect, 100 complete control)
Method in brief: as §1

[7] = tested on: barnyardgrass (Echinochloa crus-galli); assay: Test A postemergence, visual plant response rating; conditions: for Barnyardgrass plant response rating (0 to 100 scale): 500 g ai/ha, postemergence, 0 is no effect, 100 is complete control; for Barnyardgrass plant response rating: Postemergence, 125 g ai/ha, 0 to 100 scale (0 no effect, 100 complete control)
Method in brief: as §1

[8] = tested on: ragweed (common ragweed, Ambrosia elatior); assay: Test A postemergence, visual plant response rating; conditions: for Ragweed plant response rating (0 to 100 scale): 500 g ai/ha, postemergence, 0 is no effect, 100 is complete control; for Ragweed plant response rating: Postemergence, 125 g ai/ha, 0 to 100 scale (0 no effect, 100 complete control)
Method in brief: as §1

corn (Zea mays) = assay: Test A postemergence, visual plant response rating; conditions: for Corn plant response rating (0 to 100 scale): 500 g ai/ha, postemergence, 0 is no effect, 100 is complete control; for Corn plant response rating: Postemergence, 125 g ai/ha, 0 to 100 scale (0 no effect, 100 complete control)
Method in brief: as §1

kochia (Kochia scoparia) [9] = assay: Test A postemergence, visual plant response rating; conditions: for Kochia plant response rating (0 to 100 scale): 500 g ai/ha, postemergence, 0 is no effect, 100 is complete control; for Kochia plant response rating: Postemergence, 125 g ai/ha, 0 to 100 scale (0 no effect, 100 complete control)
Method in brief: as §1

[10] = tested on: sedge, umbrella (small-flower umbrella sedge, Cyperus difformis); assay: Test B flooded paddy test, visual plant response rating; conditions: 250 g ai/ha, Flood, applied to paddy water, 2-leaf stage, evaluated after 13 to 15 days
Method in brief: (§2)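 At the two-leaf stage, seedlings received compound applied to paddy water flooded 3 cm above soil, a level sustained until assessment. Greenhouse incubation lasted 13 to 15 days before visual comparison with control plants.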

rice (Oryza sativa) = assay: as above; conditions: 250 g ai/ha, Flood, applied to paddy water, 2-leaf stage, evaluated after 13 to 15 days
Method in brief: as §2

[11] = tested on: ducksalad (Heteranhera limosa); assay: as above; conditions: 250 g ai/ha, Flood, applied to paddy water, 2-leaf stage, evaluated after 13 to 15 days
Method in brief: as §2

[12] = tested on: barnyardgrass (Echinochloa crus-galli); assay: as above; conditions: 250 g ai/ha, Flood, applied to paddy water, 2-leaf stage, evaluated after 13 to 15 days
Method in brief: as §2

[13] = tested on: foxtail, giant (giant foxtail, Setaria faberii); assay: Test A preemergence, visual plant response rating; conditions: for Foxtail, Giant plant response rating: 125 g ai/ha, preemergence, 0 to 100 scale, 0 no effect, 100 complete control; for Foxtail, Giant plant response rating (0 to 100 scale): 500 g ai/ha Preemergence, approx. 10 days
Method in brief: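 Compared with untreated controls, treated plants received a visual injury score on a 0–100 scale around 10 days after application. The compound, in a non-phytotoxic solvent with surfactant, was given as a preemergence soil spray or postemergence at the one- to two-leaf stage.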

[14] = tested on: Italian ryegrass (Lolium multiflorum); assay: Test A preemergence, visual plant response rating; conditions: for Ryegrass, Italian plant response rating: 125 g ai/ha, preemergence, 0 to 100 scale, 0 no effect, 100 complete control; for Ryegrass, Italian plant response rating (0 to 100 scale): 500 g ai/ha Preemergence, approx. 10 days
Method in brief: as §1

[15] = tested on: pigweed (Amaranthus retroflexus); assay: Test A preemergence, visual plant response rating; conditions: for Pigweed plant response rating: 125 g ai/ha, preemergence, 0 to 100 scale, 0 no effect, 100 complete control; for Pigweed plant response rating (0 to 100 scale): 500 g ai/ha Preemergence, approx. 10 days
Method in brief: as §1

[16] = tested on: barnyardgrass (Echinochloa crus-galli); assay: Test A preemergence, visual plant response rating; conditions: for Barnyardgrass plant response rating: 125 g ai/ha, preemergence, 0 to 100 scale, 0 no effect, 100 complete control; for Barnyardgrass plant response rating (0 to 100 scale): 500 g ai/ha Preemergence, approx. 10 days
Method in brief: as §1

[17] = tested on: ragweed (common ragweed, Ambrosia elatior); assay: Test A preemergence, visual plant response rating; conditions: for Ragweed plant response rating: 125 g ai/ha, preemergence, 0 to 100 scale, 0 no effect, 100 complete control; for Ragweed plant response rating (0 to 100 scale): 500 g ai/ha Preemergence, approx. 10 days
Method in brief: as §1

kochia (Kochia scoparia) [18] = assay: Test A preemergence, visual plant response rating; conditions: for Kochia plant response rating: 125 g ai/ha, preemergence, 0 to 100 scale, 0 no effect, 100 complete control; for Kochia plant response rating (0 to 100 scale): 500 g ai/ha Preemergence, approx. 10 days
Method in brief: as §1

[19] = 500 g ai/ha, postemergence, 0 is no effect, 100 is complete control
[20] = Postemergence, 125 g ai/ha, 0 to 100 scale (0 no effect, 100 complete control)

Compound | Wheat plant response rating (0 to 100 scale) [1, 19] | Galium plant response rating (0 to 100 scale) [2] | Galium plant response rating [2] | Foxtail, Giant plant response rating (0 to 100 scale) [3] | Foxtail, Giant plant response rating [3] | Blackgrass plant response rating (0 to 100 scale) [4] | Blackgrass plant response rating [4] | Ryegrass, Italian plant response rating (0 to 100 scale) [5, 19] | Pigweed plant response rating (0 to 100 scale) [6] | Pigweed plant response rating [6] | Barnyardgrass plant response rating (0 to 100 scale) [7] | Barnyardgrass plant response rating [7] | Ragweed plant response rating (0 to 100 scale) [8] | Ragweed plant response rating [8] | Corn plant response rating (0 to 100 scale) (corn (Zea mays)) | Corn plant response rating (corn (Zea mays)) | Kochia plant response rating (0 to 100 scale) (kochia (Kochia scoparia) [9]) | Kochia plant response rating (kochia (Kochia scoparia) [9]) | Plant response rating, Sedge, Umbrella (0 to 100 scale, 0 is no effect, 100 is complete control) [10] | Plant response rating, Rice (0 to 100 scale, 0 is no effect, 100 is complete control) (rice (Oryza sativa)) | further results
CO/N=C(/c1cscc1C)c1c(O)c(C)nn(C)c1=O [Compound 140] | 0 | 70 | 70 | 30 | 10 | 0 | 0 | 60 | 90 | 80 | 20 | 0 | 70 | 50 | 20 | 10 | 60 | 20 | 0 | 0 | Wheat plant response rating (0 to 100 scale) ([1]; Postemergence, approx. 10 days): 0; Ryegrass, Italian plant response rating (0 to 100 scale) ([5]; Postemergence, rate not given, approx. 10 days): 10; Plant response rating, Ducksalad (0 to 100 scale, 0 is no effect, 100 is complete control) [11]: 0; Plant response rating, Barnyardgrass (0 to 100 scale, 0 is no effect, 100 is complete control) [12]: 0; Foxtail, Giant plant response rating [13]: 0; Foxtail, Giant plant response rating (0 to 100 scale) [13]: 10; Ryegrass, Italian plant response rating [14]: 20; Ryegrass, Italian plant response rating (0 to 100 scale) [14]: 50; Pigweed plant response rating [15]: 0; Pigweed plant response rating (0 to 100 scale) [15]: 90; Barnyardgrass plant response rating [16]: 0; Barnyardgrass plant response rating (0 to 100 scale) [16]: 0; Ragweed plant response rating [17]: 10; Ragweed plant response rating (0 to 100 scale) [17]: 50; Kochia plant response rating (kochia (Kochia scoparia) [18]): 0; Kochia plant response rating (0 to 100 scale) (kochia (Kochia scoparia) [18]): 0
CO/N=C(\c1ccccc1C(C)C)c1c(O)c(C)nn(C)c1=O [Compound 94] | 40 | 70 | 60 | 70 | 40 | 80 | 20 | 80 | 80 | 50 | 30 | 20 | 70 | 50 | 20 | 10 | 60 | 20 | 0 | 0 | Wheat plant response rating [1, 20]: 0; Ryegrass, Italian plant response rating [5, 20]: 30; Plant response rating, Ducksalad (0 to 100 scale, 0 is no effect, 100 is complete control) [11]: 0; Plant response rating, Barnyardgrass (0 to 100 scale, 0 is no effect, 100 is complete control) [12]: 0; Foxtail, Giant plant response rating [13]: 20; Foxtail, Giant plant response rating (0 to 100 scale) [13]: 60; Ryegrass, Italian plant response rating [14]: 50; Ryegrass, Italian plant response rating (0 to 100 scale) [14]: 90; Pigweed plant response rating [15]: 10; Pigweed plant response rating (0 to 100 scale) [15]: 70; Barnyardgrass plant response rating [16]: 10; Barnyardgrass plant response rating (0 to 100 scale) [16]: 50; Ragweed plant response rating [17]: 10; Ragweed plant response rating (0 to 100 scale) [17]: 70; Kochia plant response rating (kochia (Kochia scoparia) [18]): 0; Kochia plant response rating (0 to 100 scale) (kochia (Kochia scoparia) [18]): 10
